This is an account of results in patent publication US12350250B2, “Aggrelytes for treating ocular conditions” (The Regents of the University of Colorado, a Body Corporate, priority 2022, dated 2025).

SMILES strings stand for the structures.

One assay concerns αA-crystallin (αAC). The assay is described as follows: Crystallin levels in solubilized human lens proteins (Western blot), αAC. The class given is biochemical. The settings on record: 500 μM, solubilized proteins of three human lenses. The protocol: The contents of crystalline proteins [αA-crystallin (αAC), αB-crystallin (αBC), β-crystallin (βC), and γ-crystallin (γC)] in the solubilized proteins of three human lenses treated with either Aggrelyte-2 or Aggrelyte-2C (500 μM) from Example 4 were determined by Western blot analysis as described for Example 5. Membranes were incubated with antibodies against αAC (1:14,000 dilution; Enzo Life Sciences, Catalog #ADI-SPA-221D), αBC (1:700,000 dilution; University of Iowa), βC (1:14,000 dilution; Santa Cruz Biotechnology, Catalog #sc-22745), and γC (1:7,000 dilution; Santa Cruz Biotechnology, Catalog #sc-22746). The secondary antibodies were HRP-conjugated anti-mouse IgG for αBC and HRP-conjugated […] (Cell Signaling Technology, Catalog #7074S) for αAC, βC, and γC. According to the supplier, the […] detects mostly βB1-crystallin and, to a lesser extent, βA1/3, βA2, βA4, βB2, and βB3-crystallin. The γC antibody reacts with γA, γB, γC, γD, γE, and γF-crystallin.

The target of another assay is T1, human recombinant αAC (Homo sapiens, UniProt P02489).
T1 sequence (P02489 1-173): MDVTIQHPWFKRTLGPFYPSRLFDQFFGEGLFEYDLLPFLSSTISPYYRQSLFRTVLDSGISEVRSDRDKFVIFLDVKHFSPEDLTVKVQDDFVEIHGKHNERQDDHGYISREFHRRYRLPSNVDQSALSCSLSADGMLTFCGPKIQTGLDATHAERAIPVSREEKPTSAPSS
As to the kind of experiment: AGE formation (CML, CEL) in glycated recombinant αAC. The class given is biochemical. The settings on record: αAC 3 mg/mL pretreated with 10 mM aggrelyte-2 for 24 h, glycating mixture 5 days. As to the method:
To investigate the effects of Aggrelyte-2 on advanced glycation end product (AGE) formation, human recombinant αAC (3 mg/mL) or γD-crystallin (γDC, 2 mg/mL) in PBS was treated with or without aggrelyte-2 (10 mM for αAC and 1.25 mM for γDC) for 24 h, dialyzed against 100 mM sodium phosphate buffer pH 7.4 for 16 h and incubated with or without a glycating mixture (2 mM ascorbate, 25 mM D-glucose and 250 μM methylglyoxal) in 100 mM sodium phosphate buffer pH 7.4 for 5 days (after adding 0.002% sodium azide) at 37° C. The incubated proteins were dialyzed against PBS for 16 h, treated with 100 mM sodium borohydride for 1 h at room temperature, and acid hydrolyzed. Two AGEs, N^−-carboxymethyllysine (CML) and N^□-carboxyethyllysine (CEL), were measured by LC-MS/MS as described above. Each sample was separately processed 3-4 times.

Regarding `COC(=O)[C@H](CSC(C)=O)NC(C)=O` [Aggrelyte-2, N,S-diacetyl-L-cysteine methyl ester], the “levels of αAC, fold higher than in the Aggrelyte-2C-treated samples” value with αA-crystallin (αAC) was 1.3 fold. Besides, the “levels of both CML and CEL (AGEs) after glycation” value on human recombinant αAC is “significantly reduced (p<0.0001)”.
